Test [1] has as its system MCF7. The experiment in a line: Antiproliferative activity against human MCF7 cells by SRB assay. The format is functional, cell-based.
Test [2] deals with JIMT-1. Put plainly: Antiproliferative activity against human JIMT1 cells by SRB assay. Type of test: functional, cell-based.
For the next test, the system named is SK-BR-3. Put plainly: Antiproliferative activity against human SKBR3 cells by SRB assay. Type of test: functional, cell-based. For orientation: The SRB assay estimates cell density from bound dye.
In the next test the test system is MCF-10A. The experiment in a line: Antiproliferative activity against human MCF10A cells by SRB assay. The format is cell-based.
The next test concerns LoVo. Put plainly: Antiproliferative activity against human LoVo cells by SRB assay. Type of test: functional, cell-based.
Test [3] is described as follows: Antiproliferative activity against human LoVo/DX cells by SRB assay. Type of test: functional, cell-based.
Test [4] deals with HCC1937. Put plainly: Antiproliferative activity against human HCC1937 cells after 72 hrs by MTT assay. Type of test: functional, cell-based. Conditions: HCC1937, 72 h.
Test [5] has as its system JIMT-1. The experiment in a line: Antiproliferative activity against human JIMT1 cells after 72 hrs by MTT assay. The format is functional, cell-based. Conditions: JIMT-1, 72 h. In general terms: Tetrazolium assays rely on reduction of a dye to a coloured formazan, in cell work by metabolically active cells.
Test [6] has as its system HGC-27. The experiment in a line: Antiproliferative activity against human HGC27 cells after 48 hrs by MTT assay. The format is functional, cell-based. Conditions: HGC-27, 48 h.
Test [7] relates to MDA-MB-231. Put plainly: Antiproliferative activity against human MDA-MB-231 cells after 48 hrs by MTT assay. Conditions: MDA-MB-231, 48 h. The format is functional, cell-based.
The test system of the next test is HT-29. The experiment in a line: Antiproliferative activity against human HT-29 cells after 48 hrs by MTT assay. The format is functional, cell-based. Conditions: HT-29, 48 h.
The next test concerns 4T1. Put plainly: Antiproliferative activity against mouse 4T1 cells by MTT assay. Type of test: functional, cell-based.
Test [8] relates to JIMT-1. The experiment in a line: Antiproliferative activity against human JIMT1 cells. The format is functional, cell-based.
The subject of test [9] is MCF7. Put plainly: Antiproliferative activity against human MCF7 cells. The format is functional, cell-based.
Test [10] has as its system HCC1937. The experiment in a line: Antiproliferative activity against human HCC1937 cells. Type of test: functional, cell-based.
A further test has as its system U-87 MG. Put plainly: Antiproliferative activity against human U87 cells by MTT assay. The format is functional, cell-based, U-87MG ATCC.
In a further test the test system is HeLa. The experiment in a line: Antiproliferative activity against human HeLa cells by MTT assay. The format is functional, cell-based.
Test [11] has as its system MDA-MB-231. The experiment in a line: Antiproliferative activity against human MDA-MB-231 cells by MTT assay. The format is functional, cell-based.
In the next test the test system is Caco-2. Put plainly: Antiproliferative activity against human Caco2 cells by MTT assay. Type of test: functional, cell-based.
The subject of test [12] is JIMT-1. The experiment in a line: Antiproliferative activity against human JIMT1 cells by MTT assay. The format is functional, cell-based.
The subject of test [13] is MCF7. The experiment in a line: Antiproliferative activity against human MCF7 cells by MTT assay. Type of test: functional, cell-based.
Test [14] deals with HGC-27. Put plainly: Antiproliferative activity against human HGC27 cells by MTT assay. The format is functional, cell-based.
The subject of test [15] is MDA-MB-231. The experiment in a line: Antiproliferative activity against human MDA-MB-231 cells by SRB assay. The format is functional, cell-based.
A short description of test [16]: Antiproliferative activity against HMLER cells by MTT assay Breast cancer stem cell. The format is functional, cell-based. Conditions: Homo sapiens.

This is an account of results in ChEMBL document CHEMBL4316586, “A comprehensive review of salinomycin derivatives as potent anticancer and anti-CSCs agents” (Eur J Med Chem, 2019).

pIC50: −log10 of the molar value.

By pIC50 is commonly meant the IC50 on a negative log10 scale, so that one unit is a factor of ten. Low values mean a large IC50, high ones a small IC50. In the case of `CC[C@@H](C(=O)[C@@H](C)[C@@H](O)[C@H](C)[C@@H]1O[C@@H]([C@@H](CC)C(=O)O)CC[C@@H]1C)[C@H]1O[C@]2(C=C[C@@H](OC(=O)c3ccc(C(=O)O[C@@H]4C=C[C@]5(O[C@H]([C@@H](CC)C(=O)[C@@H](C)[C@@H](O)[C@H](C)[C@@H]6O[C@@H]([C@@H](CC)C(=O)O)CC[C@@H]6C)[C@@H](C)C[C@H]5C)O[C@@]45CC[C@@](C)([C@H]4CC[C@](O)(CC)[C@H](C)O4)O5)cc3)[C@]3(CC[C@@](C)([C@H]4CC[C@](O)(CC)[C@H](C)O4)O3)O2)[C@H](C)C[C@@H]1C`, the negative-log IC50 (pIC50) in the test on MCF7 [1] is 5.74; with JIMT-1 [2] it was 5.62; with SK-BR-3 it was 6.00; with MCF-10A, 4.68; in the test on LoVo, 5.92; in test [3] it was 5.55.
As to `CC[C@@H](C(=O)[C@@H](C)[C@@H](O)[C@H](C)[C@@H]1O[C@@H]([C@@H](CC)C(=O)O)CC[C@@H]1C)[C@H]1O[C@]2(C=CC[C@]3(CC[C@@](C)([C@H]4CC[C@](O)(CC)[C@H](C)O4)O3)O2)[C@H](C)C[C@@H]1C`, the negative-log IC50 (pIC50) in the test on HCC1937 [4] was below 5.00; in the test with JIMT-1 [5], 5.76.
Take `CC[C@@H](C(=O)[C@@H](C)[C@@H](O)[C@H](C)[C@@H]1O[C@@H]([C@@H](CC)C(=O)O)CC[C@@H]1C)[C@H]1O[C@@]2(C=C[C@@H](O)[C@@]3(CC[C@@](C)([C@H]4CC[C@](O)(CC)[C@H](C)O4)O3)O2)[C@H](C)C[C@@H]1C`: the figures for the pIC50 with HGC-27 [6], in the test with MDA-MB-231 [7] and in the test on HT-29 were 6.21, 5.24 and 6.12, respectively.
Take `CC[C@@H](C(=O)[C@@H](C)[C@@H](O)[C@H](C)[C@@H]1O[C@@H]([C@@H](CC)C(=O)O)CC[C@@H]1C)[C@H]1O[C@]2(C=C[C@H](n3cc(-c4ccc(Br)cc4)nn3)[C@]3(CC[C@@](C)([C@H]4CC[C@](O)(CC)[C@H](C)O4)O3)O2)[C@H](C)C[C@@H]1C`: the pIC50 in the test on 4T1 is 5.43.
Take `CC[C@@H](C(=O)[C@@H](C)[C@@H](O)[C@H](C)[C@@H]1O[C@@H]([C@@H](CC)C(=O)O)CC[C@@H]1C)[C@H]1O[C@]2(C=C[C@H](n3cc(-c4ccccc4C(=O)OC)nn3)[C@]3(CC[C@@](C)([C@H]4CC[C@](O)(CC)[C@H](C)O4)O3)O2)[C@H](C)C[C@@H]1C`: in the test with 4T1, the pIC50 was 5.42.
On to `CC[C@@H](C(=O)[C@@H](C)[C@@H](O)[C@H](C)[C@@H]1O[C@@H]([C@@H](CC)C(=O)O)CC[C@@H]1C)[C@H]1O[C@]2(CCC(=O)[C@]3(CC[C@@](C)([C@H]4CC[C@](O)(CC)[C@H](C)O4)O3)O2)[C@H](C)C[C@@H]1C`, for which the pIC50 is 5.57 in the test on JIMT-1 [8] and 5.51 with MCF7 [9].
Consider `CC[C@@H]([C@@H](O)[C@@H](C)[C@@H](O)[C@H](C)[C@@H]1O[C@@H]([C@@H](CC)C(=O)O)CC[C@@H]1C)[C@H]1O[C@]2(C=C[C@@H](O)[C@]3(CC[C@@](C)([C@H]4CC[C@](O)(CC)[C@H](C)O4)O3)O2)[C@H](C)C[C@@H]1C`, for which the figures for the negative logarithm of the IC50 (pIC50) in the test with JIMT-1 [8] and with MCF7 [9] were 4.90 and 4.86, respectively.
With `CC[C@@H](C(=O)[C@@H](C)[C@@H](O)[C@H](C)[C@@H]1O[C@@H]([C@@H](CC)C(=O)O)CC[C@@H]1C)[C@H]1O[C@]2(CCC[C@]3(CC[C@@](C)([C@H]4CC[C@](O)(CC)[C@H](C)O4)O3)O2)[C@H](C)C[C@@H]1C`, the negative logarithm of the IC50 (pIC50) with HCC1937 [4] was below 5.00; with JIMT-1 [5], 5.68.
Take `CC[C@@H](C(=O)[C@@H](C)[C@@H](O)[C@H](C)[C@@H]1O[C@@H]([C@@H](CC)C(=O)O)CC[C@@H]1C)[C@H]1O[C@]2(CC[C@@H](O)[C@]3(CC[C@@](C)([C@H]4CC[C@](O)(CC)[C@H](C)O4)O3)O2)[C@H](C)C[C@@H]1C`: the negative logarithm of the IC50 (pIC50) in the test with JIMT-1 [8] was 6.00; in the test on MCF7 [9] it was 6.05.
As for `CC[C@@H](C(=O)[C@@H](C)[C@@H](O)[C@H](C)[C@@H]1O[C@@H]([C@@H](CC)C(=O)OCC[Si](C)(C)C)CC[C@@H]1C)[C@H]1O[C@]2(C=C[C@@H](O)[C@]3(CC[C@@](C)([C@H]4CC[C@](O)(CC)[C@H](C)O4)O3)O2)[C@H](C)C[C@@H]1C`, the negative-log IC50 (pIC50) with HCC1937 [10] is 5.36.
Take `CC[C@@H]([C@H](O)[C@@H](C)[C@@H](O)[C@H](C)[C@@H]1O[C@@H]([C@@H](CC)C(=O)O)CC[C@@H]1C)[C@H]1O[C@]2(C=C[C@@H](O)[C@]3(CC[C@@](C)([C@H]4CC[C@](O)(CC)[C@H](C)O4)O3)O2)[C@H](C)C[C@@H]1C`: the pIC50 with JIMT-1 [8] is 4.81; with MCF7 [9], 4.90.
As to `CC[C@@H](C(=O)[C@@H](C)[C@@H](O)[C@H](C)[C@@H]1O[C@@H]([C@@H](CC)C(=O)O)CC[C@@H]1C)[C@H]1O[C@]2(C=C[C@@H](O)[C@]3(CC[C@@](C)([C@H]4CC[C@](O)(CC)[C@H](C)O4)O3)O2)[C@H](C)C[C@@H]1C` [SALINOMYCIN], the pIC50 in the test on HGC-27 [6] was 5.09; with U-87 MG it was 4.41; in the test with HeLa it was 6.49; with MDA-MB-231 [11], 5.16; in the test on Caco-2, 4.89; with JIMT-1 [12] it was 6.28. Besides, the pIC50 in the test on JIMT-1 [8] was 6.28; with MDA-MB-231 [7], below 5.00; in the test with MCF7 [13] it was 6.23; in the test with HGC-27 [14], 5.59; in the test with HT-29, 5.49; with MDA-MB-231 [15], 5.19. The values for the pIC50 in test [16] and in [3] were 7.00 and 6.16, respectively.
